According to patent US5221692A, “Ether linked and relatively nonpungent analogues of N-nonanoyl vanillylamide” (National Science Council, priority 1991, dated 1993):
Read-outs that look alike come from different tables or passages of the source.

What was measured:
[1] = system: right eye of male Wistar rats; test: Wiping test (potency of pungency); assay type: in vivo
Method: The wiping test was performed as described by Szolcsanyl and Jansco-Gabor, Arzneim.-Forsch./Drug Res. 25, 1877 (1975). Briefly, solutions of CAP and its analogues were prepared as described above in successive tenfold dilutions. Each dilution was dropped into the right eye (vehicle being administered to the left eye as negative control) of male Wistar rats weighing 180-250 g, and the total number of protective movements (scratching, wiping of the eye with the foreleg) was counted for 30 min. Each concentration was applied to a total of 6 rats, and a dose-response curve were obtained form the mean value of each group. […] On the basis of the MPP values thus obtained, RPP (relative pain-producing potency) values were determined with respect to the pain-producing potency of CAP, which was taken as 1000.
^a) Methods are described by Szolcsanyi & JanscoGabor.

[2] = system: acetic acid-induced writhing in mice; test: Acetic acid-induced writhing (antinociceptive test); assay type: in vivo, male mice (ddk strain); details: for ED50: Mus musculus, ip, 0.5 h, read-out: ED50 (95% C.L.); for Potency ratio: indomethacin 1.00
Method: Evaluation of antinociceptive effects Following the method described by Koster et al., Fed. proc. 18, 412 (1959), antinociceptive tests were carried out in male mice after intraperitoneal administration of NVA and its analogues. Briefly, four groups of eight male mice (ddk strain) weighing 18-22 g were brought to the laboratory on the day prior to study, and housed overnight with free access to food and water. Solutions of NVA and its analogues, as well as indomethacin were made up to 10% ethanol, 10% […] 80% saline, and then diluted with saline to the required concentrations. The test solution was administered by intraperitoneal injection with single dose of 0.2 mL (vehicle administered as control). 20 min after injection, 0.2 mL of 0.7% acetic acid was injected intraperitoneally to induce writhing. Following injection, the mice were placed […] acid injection, a writhe being defined as a sequence of arching of the back, followed by pelvic rotation and hind limb extension.
^a) Writhes were counted for 30 min after injection of acetic acid
^b) ED50 and 95% confidence limits were calculated by the
Litchfield and Wilcoxon method.

[3] = oral; cited from earlier work
[4] = relative to capsaicin, taken as 1000
[5] = intraperitoneal, mice, acetic acid 20 min after injection, writhes counted for 30 min, 95% confidence limits, Litchfield and Wilcoxon

COc1cc(CNC(=O)CCCC/C=C/C(C)C)ccc1O [Capsaicin, trans-8-methyl-N-vanillyl-6-nonenamide]
MPP (Moderate pain-producing potency) ([1]; concentration inducing 32 scratchings, eye instillation, rats, 30 min): 90 µg/mL
median response (number of scratchings) ([1]; counted for 30 min, eye instillation, rats): 32 scratchings
RPP (Relative pain-producing potency) [1, 4]: 1000
ED50 [2, 5]: 0.07 mg/kg
Potency ratio ([2]; intraperitoneal, mice): 15.71

CCCCCCCCC(=O)NCc1ccc(OC(=O)CCC(=O)O)c(OC)c1 [Compound 3, N-(4-o-succinicacid-3-methoxybenzyl)-nonamide]
pungency (in words) ([1]; rat, in vivo): nearly equivalent to that of NVA and CAP
MPP (Moderate pain-producing potency) ([1]; rat, in vivo, 30 min): 270 µg/mL
RPP (Relative pain-producing potency) ([1]; rat, in vivo, 30 min): 333
ED50 [2, 5]: 0.06 mg/kg
Potency ratio ([2]; intraperitoneal, mice): 18.33

CCCCCCCCC(=O)NCc1ccc(OCC(O)CO)c(OC)c1 (stereo not shown) [Compound 4, N-(4-o-glycerol-3-methoxybenzyl)-nonamide]
ED50 [2, 5]: 0.09 mg/kg
Potency ratio ([2]; intraperitoneal, mice): 12.22

CCCCCCCCC(=O)NCc1ccc(OCC(=O)O)c(OC)c1 [Compound 5]
ED50 [2, 5]: 0.04 mg/kg
antinociceptive effect (in words) ([2]; intraperitoneal, mice): the most potent in its antinociceptive effect
Potency ratio ([2]; intraperitoneal, mice): 27.50

CCCCCCCCC(=O)NCc1ccc(OCCO)c(OC)c1 [Compound 6, N-(4-o-glycol-3-methoxybenzyl)-nonamide]
ED50 [2, 5]: 0.14 mg/kg
Potency ratio ([2]; intraperitoneal, mice): 7.86

COc1ccc2c(c1)c(CC(=O)O)c(C)n2C(=O)c1ccc(Cl)cc1 [Indomethacin, reference compound]
ED50 [2, 5]: 1.1 mg/kg

CCCCCCCCC(=O)NCc1ccc(O)c(OC)c1 [NVA, N-nonanoyl vanillylamide]
RPP (Relative pain-producing potency) [1, 4]: 409
ED50 [2]: 0.08 mg/kg
Potency ratio ([2]; intraperitoneal, mice): 13.75

CCCCCCCCC=CCCCCCCCC(=O)NCc1ccc(O)c(OC)c1 [olvanil, N-vanillyl-9-octadecenamide]
ED50 [3]: 170 mg/kg
